The source of these data is patent US4939133A, “N-substituted-2-hydroxy-α-oxo-benzeneacetamides and pharmaceutical compositions having activity as modulators of the arachidonic acid cascade” (Warner-Lambert Company, priority 1985, dated 1990).

Structures are written as SMILES. pIC50: −log10 of the molar value. Where “and” joins values, the source holds several entries; their conditions need not be identical. Equal entries are not always repeated.

The first experiment deals with T1, human leukocyte 5-lipoxygenase (Homo sapiens, UniProt P09917).
T1 construct: endogenous in cells; host or cells: leukocytes from fresh blood of normal adult men
T1 sequence (P09917 1-674): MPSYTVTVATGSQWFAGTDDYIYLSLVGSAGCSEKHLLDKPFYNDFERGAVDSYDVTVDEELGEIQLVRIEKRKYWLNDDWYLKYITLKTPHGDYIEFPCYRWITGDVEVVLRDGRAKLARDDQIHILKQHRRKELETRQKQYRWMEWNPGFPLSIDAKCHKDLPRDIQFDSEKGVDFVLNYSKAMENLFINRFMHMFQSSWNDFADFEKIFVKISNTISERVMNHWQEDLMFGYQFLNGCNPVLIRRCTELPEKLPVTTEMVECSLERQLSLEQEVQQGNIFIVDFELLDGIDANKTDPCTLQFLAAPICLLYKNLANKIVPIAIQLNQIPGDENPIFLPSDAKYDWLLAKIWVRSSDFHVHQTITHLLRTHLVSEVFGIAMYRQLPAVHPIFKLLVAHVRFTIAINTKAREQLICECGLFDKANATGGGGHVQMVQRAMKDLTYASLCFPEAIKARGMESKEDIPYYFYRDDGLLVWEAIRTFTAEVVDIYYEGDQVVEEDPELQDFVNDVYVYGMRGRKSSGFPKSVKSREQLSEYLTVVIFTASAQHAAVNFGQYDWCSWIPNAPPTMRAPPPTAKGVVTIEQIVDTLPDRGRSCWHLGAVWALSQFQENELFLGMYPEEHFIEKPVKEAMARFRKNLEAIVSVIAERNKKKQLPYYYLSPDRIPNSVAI
As to the kind of experiment: 5-Lipoxygenase inhibition in human leukocytes, 5-HETE formation (5LOA1, 5LOA in Table 6). The experiment is classed as cell-based. To be noted: 50% inhibition of 5-HETE formation, E -number means X 10^-no., read-out: IC50 (5LOA). From the text:
To Evaluate the Effect of Each Compounds as a 5-Lipoxygenase Inhibitor in Comparison to Standard Reference Agents in Human Leukocytes (5LOAl)
The purpose of this assay is to evaluate the activity of each compound as an inhibitor of human leukocyte 5-lipoxygenase.
Arachidonic acid and calcium ionophore A23187 are obtained from Sigma (St. Louis, MO). Silica gel plates, GF are obtained from Analtech (Newark, DE). Arachidonic acid, (1-^14 C) and 5-HETE (^3 H), 5-(S)-hydroxy-6-trans, 8,11,14-cis eicosatetraenoic acid, are obtained from New England Nuclear (Boston, MA). Six percent Dextran-70 in 0.9% NaCl is obtained from Cuffer Labs (Berkeley, CA).
Preparation of Leukocytes
Fresh blood from normal adult men who had not received any drugs for at least the previous five days is obtained by the Community Research Clinic (WL/PD) using venipuncture and collected into heparinized vacuotainer tubes. To every 100 ml of pooled blood is added 25 ml of dextran solution (6% dextran -70 in 0.9% sodium chloride containing 3% dextrose) and this is mixed gently in a plastic cylinder. The mixture is left to stand at room temperature for at least 90 minutes. The upper layer which is rich in leukocytes and platelets is then carefully decanted into 50 ml plastic tubes and centrifuged at about 100×g for eight minutes in and IEC centrifuge and rotor number 269 (about 600 rpm). The supernatant fluid is discarded and the pellet is resuspended in 10 ml of 0.87% ammonium chloride for exactly two minutes. This procedure is to lyse completely contaminating red blood cells. Leukocytes are then separated by centrifugation for ten minutes. The pellet is washed three times by suspension in 20 ml PBS (sodium chloride, 7.1 g; Na2 HPO4, 1.15 g; KH2 PO4,0.2 g, and KCl, 0.2 g/L) and centrifuged as before. The final pellet is suspended in PBS containing 0.87 mM CaCl2. Viability of the cells is then checked using trypan blue exclusion method and is found to be over 90%.
5-Lipoxygenase Enzyme Assay
Leukocyte cells in suspension (0.98 ml) are incubated with or without test compounds for five minutes at 37° C. in a shaking water bath. At this time a […] mixture is perpared per 1 ml of cell suspension: 100 mM arachidonic acid, 1 μl, 0.05 μCi ^14 C-arachidonic acid in 5 μl; 1 mM calcium ionophore A23187, 10 μl (1). This mixture is added and the incubation continued for five minutes. The reaction is stopped by adding four volumes of absolute ethanol and the mixture is kept in ice for 30 minutes. The floculated precipitate is separated by centrifugation at about 37,000×g for 20 minutes (Beckman Instruments rotor number 40). The alcohol extract is taken to dryness under a stream of nitrogen and the residue is dissolved in 100-200 μl absolute ethanol. At the time any turbidity is removed by centrifugation. An aliquot (25-50 μl) is applied onto 20×20 cm silica gel TLC plate and developed using the following solvent system: diethyl ether, petroleum ether (2040°C.),acetic acid (50:50: 1 v/v). Zones of 1 cm apart are scraped from the TLC plate and transferred to mini-vials. Methanol (0.5 ml) is added to dissolve the radioactivity adsorbed to the silica gel and scintillation fluid (H. P., Beckman), 5 ml is then added and vials are counted in a liquid scintillation counter. A sample of ^3 H-5-HETE is applied and used for the identification of the formed 5-HETE. Total radioactivity in the test as well as the control samples are normalized and the amount of 5-HETE present is calculated accordingly.
IC50 values are defined as the concentrations of test agents which caused a 50% inhibition of the formation of 5-HETE as compared to control and are determined by inspection of the concentration-response curves.
Usually pIC50 stands for the IC50 on a negative log10 scale, so that one unit is a factor of ten. Take `COc1ccc(C(=O)Nc2ccc(CCc3ccc(O)c(O)c3)cc2)c(O)c1` [Example 8, N-[4-[2-(3,4-Dihydroxyphenyl)ethyl]phenyl]-2-hydroxy-4-methoxybenzamide]: the pIC50 is 5.15.

For the molecule `O=C(Nc1ccc(CCc2ccc(Cl)c(Cl)c2)cc1)c1cccc(Cl)c1O` [Example 34], the pIC50 is 4.41.

As for `Cc1ccc(C(=O)N(C)c2ccc(CCc3ccc(O)c(O)c3)cc2)c(O)c1` [Example 43], the pIC50 was 5.28.

Consider `COc1ccc(CCc2ccc(NC(=O)c3ccccc3O)cc2)cc1OC` [Example 48, N-[4-[2-(3,4-dimethoxyphenyl)ethyl]phenyl]-2-hydroxybenzamide], for which the pIC50 was 5.38 and 5.46.

In the case of `COc1ccc(CCc2ccc(N(C)C(=O)C(=O)c3ccccc3O)cc2)cc1OC` [Example 51, N-Methyl-N-[4-(2-(3,4-dimethoxyphenyl)ethyl)phenyl]-2-hydroxy-α-oxo-benzeneacetamide], the pIC50 is 4.95.

`COc1ccc(CCc2ccc(NC(=O)C(=O)c3ccccc3O)cc2)cc1OC` [Example 52, N-[4-(2-(3,4-dimethoxyphenyl)ethyl)phenyl]-2-hydroxy-α-oxo-Benzeneacetamide]: the pIC50 is 5.30.

As to `O=C(Nc1ccc(CCc2ccc(O)c(O)c2)cc1)C(=O)c1ccccc1O` [Example 53, N-[4-[2-(3,4-dihydroxyphenyl)ethyl]-phenyl]-2-hydroxy-α-oxo-benzeneacetamide], the pIC50 was 5.47.

`CC(C)(C)c1cccc(C(=O)C(=O)Nc2ccc(CCc3ccc(O)c(O)c3)cc2)c1O` [Example 55, N-[4-[2-(3,4-dihydroxyphenyl)ethyl]phenyl]-3-(1,1-dimethylethyl)-2-hydroxy-α-oxobenzenacetamide]: the pIC50 was 5.15 and 5.09.

Still in this experiment, the particulars now being: IC50 (5LOA), 50% inhibition of 5-HETE formation, E -number means X 10^-no.
The molecule `CCCCCCCCCCc1ccc(NC(=O)c2cc([N+](=O)[O-])ccc2O)cc1` [Example 21, N-(4-n-decylphenyl)-2-hydroxy-5-nitro-benzamide] gave a pIC50 of 4.68.

The test system of the next experiment is Human Leukocyte Lipoxygenase. The experiment can be described thus: Human Leukocyte Lipoxygenase Assay (LDA-H / LDAH). The experiment is classed as biochemical. Conditions: 2.50 E -5 M. As for the experimental part:
Human Leukocyte Lipoxygenase Assay (LDA-H)
Whole blood is collected from normal volunteers and spun in a refrigerated centrifuge for four minutes at 1°-6° C. at 3800 g. The buffy coat is manually separated and washed twice with chilled 0.83% NH4 Cl and centrifuged at 1000 RPM for ten minutes at 4° C. The white cell is suspended in culture media-EMEM supplemented with 6% Agamma human serum, tricine buffer, and neomycin and recentrifuged at 1000 g to yield a pellet containing the leukocytes used for the preparation of the acetone pentane powder.
The acetone-pentane powder is prepared utilizing a modification of the procedure reported for human platelet lipoxygenase. See Siegel, et al, Arachidonate Metabolism via Lipoxygenase and 12-L-hydroperoxy-5-Eicostetraenoic acid Peroxidase Sensitive to Antiinflammatory Drugs, Proc. Natl. Acad. Sci., USA 77:308, 1980 and D. P. Wallach and V. R. Brown, a novel Preparation of Human Platlet Lipoxygenase, Biochem. Biophys. Acta. 663:361, 1981. Buffy coat prepared above is resuspended in 5-7 volumes of cold 0.1M Tris buffer, pH 7.4 containing 0.154M NaCl. The suspension is centrifuged at 13,300 g for ten minutes at 4° C. The resultant pellet was retained, resuspended in five volumes of cold acetone, recentrifuged at 13,300 g and resuspended in five volumes of cold pentane. The pentane suspension is centrifuged for ten minutes at 13,300 g to give a pellet which is dried in the cold under vacuum with periodic pulverization. The dry powder is stable for several weeks when stored at -88° C.
Enzyme stock solution is prepared in the following manner. About 15 mg of the acetone-pentane powder sis suspended in 4 ml of cold tris buffer (0.1M, pH 7.4), allowed to stand for five minutes, and homogenized thorougly. The homogenate is sonicated three times for 15 seconds each time, diluted to 7 ml with cold tris buffer (0.1M, pH 7.4), and centrifuged at 4° C. for 60 minutes at 13,300 g. The supernatent is retained and diluted to a total of 10 ml with cold tris buffer (0.1M, pH 7.4) to give the stck enzyme solution. Additional dilutions of 2-50 fold are done as necessary to locate optimal enzyme reaction rate in the assay described below.
Substrate solution is prepared at 100 μM or 1.0 μM concentrations of arachidonic acid or linoleic acid in 0.1M tris buffer, pH 9.0 containing 20% ethanol.
The enzyme reaction is followed spectrophotometrically by the appearance of a conjugated diene product at 234 nm. The reaction is monitored at 24° C. using a Gilford Model 2600 spectrophotometer. […] The effects of inhibitors on the reaction are compared with control reactions run under indentical conditions. Routinely, each compounds of the present invention is incubated with the enzyme for five minutes prior to addition of substrate to initiate the reaction. Inhibition expressed as IC50 as molar concentration of the compound required to reduce reaction rate to 50% control.
Take `CCCCCCCCCCc1ccc(NC(=O)c2cc(Br)ccc2O)cc1` [Example 12]: the “% Inhibition (LDAH)” value is reported as 0.0%.

`CCCCCCCCCCc1ccc(NC(=O)c2ccccc2O)cc1` [Example 13]: the “% Inhibition (LDAH)” value worked out at 0.0%.

As to `O=C(Nc1ccc(CCc2ccc(Cl)c(Cl)c2)cc1)c1ccc(Cl)cc1O` [Example 36], the “% Inhibition (LDAH)” value is reported as 0.0%.

As to `COc1ccc(CCc2ccc(NC(=O)c3cc4ccccc4cc3O)cc2)cc1OC` [Example 38], the “% Inhibition (LDAH)” value was determined as 0.0%.

Take `O=C(Nc1ccc(CCc2ccc(O)c(O)c2)cc1)c1ccccc1O` [Example 47, Benzamide, N-[4-[2-(3,4-dihydroxyphenyl)ethyl]phenyl]-2-hydroxy]: the “% Inhibition (LDAH)” value turned out to be 0.0%.

Turning to `COc1ccc(CCc2ccc(NC(=O)c3ccccc3O)cc2)cc1OC` [Example 48, N-[4-[2-(3,4-dimethoxyphenyl)ethyl]phenyl]-2-hydroxybenzamide], the “% Inhibition (LDAH)” value amounted to 0.0%.

For `CCCCCCCCCCc1ccc(NC(=O)c2cc3ccccc3cc2O)cc1` [Example 49, 2-Naphthalenecarboxamide, N-(4-decylphenyl)-3-hydroxy], the “% Inhibition (LDAH)” value is on record as 0.0%.

The same experiment, now with this note: 8.00 E -5 M.
Take `CCCCCCCCCCc1ccc(NC(=O)c2c(O)cccc2O)cc1` [Example 25]: the “% Inhibition (LDAH)” value came to 0.0%.

Staying with this experiment, now noted: 50% reduction of reaction rate vs control, E -number means X 10^-no.
`CCCCCCCCCCc1ccc(NC(=O)c2ccc(Cl)cc2O)cc1` [Example 7] showed a pIC50 of 5.55.

Turning to `CCCCCCCCCCc1ccc(NC(=O)c2cccc(C)c2O)cc1` [Example 22], the pIC50 is 6.17.

Molecule `COc1ccc(CCc2ccc(NC(=O)c3cccc(Cl)c3O)cc2)cc1OC` [Example 23] showed a pIC50 of 5.39.

The molecule `COc1cc(CCc2ccc(NC(=O)c3ccc(C)cc3O)cc2)ccc1O` [Example 26] had a pIC50 of 4.62.

`COc1ccc(CCc2ccc(NC(=O)C(=O)c3ccccc3O)cc2)cc1OC` [Example 52, N-[4-(2-(3,4-dimethoxyphenyl)ethyl)phenyl]-2-hydroxy-α-oxo-Benzeneacetamide]: the pIC50 was 6.74.

As to `O=C(Nc1ccc(CCc2ccc(O)c(O)c2)cc1)C(=O)c1ccccc1O` [Example 53, N-[4-[2-(3,4-dihydroxyphenyl)ethyl]-phenyl]-2-hydroxy-α-oxo-benzeneacetamide], the pIC50 was 4.77.

For the molecule `COc1ccc(CCc2ccc(NC(=O)C(=O)c3cccc(C(C)(C)C)c3O)cc2)cc1OC` [Example 54, N-[4-[2-(3,4-dimethoxyphenyl)ethyl]phenyl]-3-(1,1-dimethylethyl)-2-hydroxy-α-oxo-benzeneacetamide], the pIC50 is 6.55.

The molecule `CC(C)(C)c1cccc(C(=O)C(=O)Nc2ccc(CCc3ccc(O)c(O)c3)cc2)c1O` [Example 55, N-[4-[2-(3,4-dihydroxyphenyl)ethyl]phenyl]-3-(1,1-dimethylethyl)-2-hydroxy-α-oxobenzenacetamide] showed a pIC50 of 5.41.

`COc1ccc(CCc2ccc(NC(=O)C(=O)c3cccc(Cl)c3O)cc2)cc1OC` [Example 60, 3-chloro-N-[4-[2-(3,4-dimethoxyphenyl)ethy]-phenyl]-2-hydroxy-α-oxo-benzenacetamide]: the pIC50 was 3.92.
